Data: patent US10278965B2, “Method of detecting cancer stem cell, method of screening cancer stem cell, and method of inhibiting cancer stem cell” (CANON KABUSHIKI KAISHA, priority 2012, dated 2019)

Experiments:
[1] = test system: Human chronic myelocytic leukemia cells, K562, ALDH (+) fraction (cancer stem cells); test: Cancer stem-cell selective inhibitory action against chronic myelocytic leukemia cells, ALDH (+) fraction; assay type: cell-based; conditions: 24 hours
Protocol: (§1) Human chronic myelocytic leukemia cells, K562, were pre-cultured in RPMI1640 medium containing 10% FBS at 37° C. in a 5% CO2 ambient. Then, a fraction containing 80% or more of cancer stem cells was extracted by use of a cancer stem cell marker, ALDEFLUOR reagent (manufactured by VERITAS Corporation) and FACSAria flow cytometry (manufactured by Nippon Becton, Dickinson and Company). […] The cultured cells were analyzed for viable cell count according to CellTiter-Glo Luminescent Cell Viability Assay (manufactured by Promega KK.). […] Note that hereinafter, an ALDEFLUOR reagent positive fraction (deemed as cancer stem cells) is represented by ALDH (+), whereas an ALDEFLUOR reagent negative fraction (not deemed as cancer stem cells) is represented by ALDH (−), in some cases.
(§2) Further, the growth suppressive effect of cancer stem cells was evaluated based on the following criteria. Note that the growth rate in Examples is a value obtained by dividing viable cell count after culture by the number of cells at the initiation time of culture.

[2] = test system: Human pancreas cancer cells, KLM-1; test: Cancer cell inhibitory (growth suppressive) action against pancreatic cancer cells, CellTiter-Glo viable cell count; conditions: KLM-1, 10 μg/mL, 24 hours
[3] = test system: K562-KOr human chronic myelocytic leukemia cells, ALDH (+) fraction, transplanted to zebra young fish; test: Inhibitory action in cancer stem cells transplanted animal, ALDH (+) fraction; assay type: in vivo; conditions: for Growth suppression rate (ALDH(+) versus ALDH(−)): zebra young fish transplanted with K562-KOr fractions; for ALDH(+) inhibition rate 100×(1−F1/F0): zebra young fish, 0.5 μm in breeding water added 24 hours after transplantation, fluorescent intensity
From the text: (§3) From cell strain K562-KOr, which is a strain of human chronic myelocytic leukemia cells having fluorescent protein Kusabira-Orange constantly expressed, a fraction (ALDH (+)) containing 80% or more of cancer stem cells was extracted by use of a cancer stem cell marker, ALDEFLUOR reagent (manufactured by VERITAS Corporation) and FACSAria flow cytometry (manufactured by Nippon Becton, Dickinson and Company). The ALDH (+) fraction and a ALDH (−) fraction of general cancer cells were transplanted separately to zebra young fish (MieKomachi lineage, 2 days after fertilization) and the fish were raised in a 32° C. environment. Furthermore, 24 hours after transplantation, Compound (16) was added to breeding water so as to obtain a final concentration of […] and fish were raised for two days in a 32° C. environment.
(§4) Cells transplanted to the zebra young fish were observed under MZ16F fluorescent stereoscopic microscope (manufactured by Leica Microsystems) and a fluorescent image of the cells after 24 hours was photographed and then fluorescent intensity was quantified.
As a reference, the fluorescent intensity of cells, which were cultured in the same operation method as above in a medium containing a 0.1% DMSO solution in place of Compound (16), was used.
The numerical value of fluorescent intensity was obtained from a fluorescent image taken in the same manner as in Experimental Example 74 except that Compound (16) of Experimental Example 74 was changed to Imatinib.
. The inhibition rate herein was obtained according to the expression: 100×(1−F1/F0), where the fluorescent intensity of cells when a test substance was added is represented by F1, and the fluorescent intensity of cells when a reference substance (DMSO) was added is represented by F0.

[4] = test system: K562 ALDH (−) cells; test: Cancer stem-cell selective staining, ALDH (−) cells; assay type: cell-based, Human; conditions: cells of Experimental Examples 39, 42 and 45 (1 μg/ml, cultured for 24 hours), fluorescent microscope
Protocol: (§5) The cells cultured for 24 hours in each of Experimental Examples 39, 42 and 45 were subjected to nuclear staining with Hoechest33342 (manufactured by Dojindo Laboratories) and a fluorescent image observed under AXIOVERT200M inverted fluorescent microscope (manufactured by Carl Zeiss) was photographed.

[5] = test system: K562-KOr human chronic myelocytic leukemia cells, ALDH (−) fraction, transplanted to zebra young fish; test: Inhibitory action in cancer cells transplanted animal, ALDH (−) fraction; assay type: in vivo; conditions: 0.5 μm in breeding water added 24 hours after transplantation, fluorescent intensity
From the text: as §3, §4
As a reference, the fluorescent intensity of cells, which were cultured in the same operation method as above in a medium containing a 0.1% DMSO solution in place of Compound (16), was used. […]

[6] = test system: K562 ALDH (+) cells; test: Cancer stem-cell selective staining, ALDH (+) cells; assay type: cell-based, Human; conditions: cells of Experimental Examples 39, 42 and 45 (1 μg/ml, cultured for 24 hours), fluorescent microscope
Protocol: as §5

[7] = Measurement of fluorescent property of compound; assay type: physicochemical; conditions: 5 μM DMSO solution
Protocol: The excitation wavelength and fluorescence wavelength of the compound were measured by a FL4500 spectrofluorometric measuring machine manufactured by Hitachi High-Technologies Corporation.

[8] = test system: Prostatic cancer cells, PC-3; test: Cancer cell inhibitory (growth suppressive) action against prostatic cancer cells, CellTiter-Glo viable cell count; assay type: cell-based; conditions: PC-3, 10 μg/mL, 24 hours
Protocol: Prostatic cancer cells, PC-3, were pre-cultured in RPMI1640 medium containing 10% FBS at 37° C. in a 5% CO2 ambient. Thereafter, 4,000 cells were seeded per well of a 96-well plate and further cultured for 24 hours. Subsequently, Compound (1) was added to the medium so as to obtain a final concentration of 10 μg/mL and cultured at 37° C. for 24 hours in a 5% CO2 ambient. The cultured cells were analyzed for viable cell count according to Cell Titer-Glo Luminescent Cell Viability Assay (manufactured by Promega KK.).
Viable cell count was analyzed in the same manner as in Experimental Example 24 except that Compound (1) of Experimental Example 24 was changed to each compound shown in Table 2.
Viable cell count was analyzed in the same manner as in Experimental Example 24 except that Compound (1) of Experimental Example 24 was changed to each of Comparative compounds 1 to 4, to obtain growth rates.
Note that the growth rate used in Examples refers to the rate (expressed by percentage) of viable cell count after culture relative to the number of cells at the initiation of cell culture. Evaluation criteria are the same as in the above experiments.

[9] = test system: KLM1-KOr cells, ALDH (+) fraction, transplanted to zebra young fish; test: Cancer metastasis suppressive effect in cancer cell metastatic foci (region within 300 to 450 μm from a transplanted tumor); assay type: in vivo; conditions: 72 hours later, region within 300 to 450 μm from transplanted tumor
Protocol: From cell strain […], in which KLM1 cells have fluorescent protein Kusabira-Orange constantly expressed, a fraction (ALDH (+)) containing 80% or more of cancer stem cells was extracted with ALDEFLUOR reagent (manufactured by VERITAS Corporation) and FACSAria flow cytometry (manufactured by Nippon Becton, Dickinson and Company). The extracted KLM1-KOr cells were transplanted to zebra young fish (MieKomachi lineage, 2 days after fertilization) and the fish were raised in a 32° C. environment. Furthermore, 24 hours after transplantation, Compound (26) (745 μmol/KgBW) was administered to yolk sac.
as §4, with “72 hours later, cells” for “Cells”, “region within 300 to 450 μm from a transplanted tumor” for “cells after 24 hours”
As a reference, the fluorescent intensity of cells, which were cultured in the same operation method as above in a medium containing a 0.1% DMSO solution in place of Compound (26), was used.
Fluorescent images were photographed in the same manner as in Experimental Example 26 except that Imatinib and Dasatinib were respectively used in place of the compound (26) in Experimental Example 75.
The inhibition rate herein was obtained according to the expression: 100×(1−F1/F0), where the fluorescent intensity of cells when a test substance was added is represented by F1, and the fluorescent intensity of cells when a reference substance (DMSO) was added is represented by F0.

[10] = test system: Human chronic myelocytic leukemia cells, K562, ALDH (−) fraction (general cancer cells); test: Cancer stem-cell selective inhibitory action against chronic myelocytic leukemia cells, ALDH (−) fraction; assay type: cell-based; conditions: K562
Protocol: as §1, §2

Excitation wavelength λex [7]	Fluorescence wavelength λem [7]	SMILES	ALDH(+) Superiority evaluation ([1]; K562, 0.05 μg/ml)	ALDH(+)/ALDH(−) ([1]; K562, 0.05 μg/ml)	ALDH(+) Superiority evaluation ([1]; K562, 0.5 μg/ml)	ALDH(+)/ALDH(−) ([1]; K562, 0.5 μg/ml)	ALDH(+) Superiority evaluation ([1]; K562, 1 μg/ml)	ALDH(+)/ALDH(−) ([1]; K562, 1 μg/ml)	Cancer cell growth rate (%) [2]	Evaluation (cancer cell growth rate) [2]	Growth suppression rate (ALDH(+) versus ALDH(−)) [3]	ALDH(+) inhibition rate 100×(1−F1/F0) [3]	ratio of ALDH (−) cells stained [4]	ALDH(−) inhibition rate 100×(1−F1/F0) [5]	ratio of ALDH (+) cells stained [6]	Cancer cell growth rate (%) [8]	Evaluation (cancer cell growth rate) [8]	also measured
474 nm	509 nm	CCCCCN1/C(=C\C=C\c2oc3ccccc3[n+]2CCCCC)Oc2ccccc21 [Compound 16]	B (The value of the growth rate of ALDH (+)/the growth rate of ALDH (−) is 0.8 or more and less than 0.95)	0.87	A (The value of the growth rate of ALDH (+)/the growth rate of ALDH (−) is less than 0.8)	0.70	A (The value of the growth rate of ALDH (+)/the growth rate of ALDH (−) is less than 0.8)	0.47	2.0%	A (Cancer cell growth rate is less than 20%)	ALDH(+) is high	95.0	18.6%	82.0	99.5%	8.4%	A (Cancer cell growth rate is less than 20%)	
496 nm	569 nm	CCN1/C(=C\C=C\C2=[N+](CC)c3ccccc3C23CCCCC3)C2(CCCCC2)c2ccccc21 [Compound 24]	B (The value of the growth rate of ALDH (+)/the growth rate of ALDH (−) is 0.8 or more and less than 0.95)	0.81	A (The value of the growth rate of ALDH (+)/the growth rate of ALDH (−) is less than 0.8)	0.61	A (The value of the growth rate of ALDH (+)/the growth rate of ALDH (−) is less than 0.8)	0.48	6.5%	A (Cancer cell growth rate is less than 20%)			28.6%		81.2%	10.0%	A (Cancer cell growth rate is less than 20%)	
571 nm	620 nm	CCN1C=C/C(=C/C=C/c2oc3ccccc3[n+]2CC)c2ccccc21 [Compound 35]	A (The value of the growth rate of ALDH (+)/the growth rate of ALDH (−) is less than 0.8)	0.77	A (The value of the growth rate of ALDH (+)/the growth rate of ALDH (−) is less than 0.8)	0.66	B (The value of the growth rate of ALDH (+)/the growth rate of ALDH (−) is 0.8 or more and less than 0.95)	0.90	29.7%	B (Cancer cell growth rate is 20% or more and less than 50%)			21.4%		82.5%			ALDH(+) Superiority evaluation ([1]; K562, 10 μg/ml): A (The value of the growth rate of ALDH (+)/the growth rate of ALDH (−) is less than 0.8); ALDH(+)/ALDH(−) ([1]; K562, 10 μg/ml): 0.69
		Cc1ccc(NC(=O)c2ccc(CN3CCN(C)CC3)cc2)cc1Nc1nccc(-c2cccnc2)n1 [Imatinib, reference compound]									ALDH(−) is high	60.0		80.0				ALDH(+) Superiority evaluation ([1]; K562, 0.12 μg/ml): C (The value of the growth rate of ALDH (+)/the growth rate of ALDH (−) is 0.95 or more); ALDH(+)/ALDH(−) ([1]; K562, 0.12 μg/ml): 1.47; ALDH(+) Superiority evaluation ([1]; K562, 0.24 μg/ml): C (The value of the growth rate of ALDH (+)/the growth rate of ALDH (−) is 0.95 or more); ALDH(+)/ALDH(−) ([1]; K562, 0.24 μg/ml): 1.48; ALDH(+) Superiority evaluation ([1]; K562, 0.35 μg/ml): C (The value of the growth rate of ALDH (+)/the growth rate of ALDH (−) is 0.95 or more); ALDH(+)/ALDH(−) ([1]; K562, 0.35 μg/ml): 1.51; ALDH(+) Superiority evaluation ([1]; K562, 0.47 μg/ml): C (The value of the growth rate of ALDH (+)/the growth rate of ALDH (−) is 0.95 or more); ALDH(+)/ALDH(−) ([1]; K562, 0.47 μg/ml): 1.63; ALDH(+) Superiority evaluation ([1]; K562, 0.59 μg/ml): C (The value of the growth rate of ALDH (+)/the growth rate of ALDH (−) is 0.95 or more); ALDH(+)/ALDH(−) ([1]; K562, 0.59 μg/ml): 2.80; Inhibition rate 100×(1−F1/F0), metastatic foci ([9]; administered to yolk sac 24 hours after transplantation (Compound (26) 745 μmol/KgBW)): 60; Evaluation (inhibition rate, metastatic foci) [9]: B (Inhibition rate is 50 or more and less than 70); inhibitory effect against general cancer cells [10]: an inhibitory effect against general cancer cells was observed
